Data: patent US6379713B1, “Method of treating an itch with iodine” (priority 2001, dated 2002)

What was measured:
itching skin = test: rubbing iodine condensate on cotton fiber against itching skin; format: in vivo, mammal
Procedure: A concentration of iodine in the range of 0.01 to 2 mg/inch^2 of skin surface is found to provide analgesia. An applicator useful for carrying and discharging the analgesic element, in its amorphous form, has been made by loading cotton fiber over a bed of hard iodine crystals sitting at the bottom of a fuming chamber. The bottom of the fiber stack is placed in contact to the top of the iodine bed. By warming the crystals, the reservoir fiber is charged with a fine, soft, rising tan colored sublimate of the hard crystal. At a temperature of 35.deg.C., 2 days is sufficient to charge a fiber with sublimated iodine in a range, by weight, of 1 to 30 mg/g of the wipe fiber. The charged fiber has a tan color, appearing as of having been dipped in liquid iodophor and then dried. Individual crystals of iodine are not readily observed and the charged wipe feels softer than the original fiber. On dipping the charged fiber in water, its tan coloration disappears.
Itching skin is found to be efficiently treated by rubbing the cotton fiber coated with condensed iodine against the itch.
The skin is not irritated by treatment from a wipe preferably comprising about 10 mg of condensate per gram of fiber comprising cotton. […] A preferred treatment supplies about 0.05 to 1 mg/inch^2 of skin. An iodine concentration of over 2 mg/inch^2 of skin begins to cause pain, while still relieving the itch.

itch = details: cited from earlier work; for time necessary to stop the immediate itch: topical application

Structure (SMILES): II [iodine]
- time to relief from an itch after application (itching skin; amorphous tan condensate, single treatment): ≤ 1 min
- time to relieve the urge to scratch after application (itching skin; cotton fiber coated with condensed iodine, rubbed in forceful back and forth motion): within three minutes
- iodine concentration on skin that begins to cause pain (itching skin; while still relieving the itch): over 2 mg/inch^2
- skin irritation (itching skin; wipe with about 10 mg of condensate per gram of cotton fiber): not irritated

Structure (SMILES): COC1=CC(=O)C[C@@H](C)[C@]12Oc1c(Cl)c(OC)cc(OC)c1C2=O [griseofulvin]
- time necessary to stop the immediate itch (time to disinfect) (itch; antibiotic composition): several days

Structure (SMILES): CCOC(=O)c1ccc(N)cc1 [benzocaine]
- time necessary to stop the immediate itch (itch): ≤ 5 min

Structure (SMILES): CC(=O)OCC(=O)[C@@]1(O)CC[C@H]2[C@@H]3CCC4=CC(=O)CC[C@]4(C)[C@H]3[C@@H](O)C[C@@]21C [hydrocortisone acetate]
- time necessary to stop the immediate itch (itch): about 15 minutes

Structure (SMILES): CN(C)CCOC(c1ccccc1)c1ccccc1 [diphenhydramine]
- time necessary to stop the immediate itch (itch): about 15 minutes
